Eleven molecules from ChEMBL document CHEMBL3046126, “Synthesis and Herbicidal Activity of New Oxazolidinedione Derivatives” (J Pestic Sci, 1999) can be followed below.

The structures appear in SMILES notation.

Series [1] relates to Lindernia procumbens. The series is described as follows: Pre-emergence herbicidal activity against Lindernia procumbens assessed as phytotoxic weed control visual ratings at 25 g ai/ha measured after 14 days post treatment under flooded conditions. The series is classed as functional.
In series [2] the test system is Oryza sativa. The series is described as follows: Post-emergence phytotoxicity against Oryza sativa cv. Koshihikari (rice) assessed as phytotoxic crop injury visual ratings measured after 14 days post treatment. The series is classed as organism-based. The note with it: in vivo, 336 h.
A short description of series [3]: Selectivity index, ratio of ED10 for Oryza sativa to ED90 for Echinochloa oryzicola by pre-emergence exposure method.
Series [4] has as its system Zea mays. The series is described as follows: Pre-emergence phytotoxicity against Zea mays (maize) assessed as phytotoxic crop injury visual ratings at 500 g ai/ha measured after 14 days post treatment under upland field conditions. The series is classed as organism-based. To be noted: in vivo, other, 336 h.
Series [5] relates to Pontederia vaginalis. The series is described as follows: Pre-emergence herbicidal activity against Monochoria vaginalis assessed as phytotoxic weed control visual ratings at 25 g ai/ha measured after 14 days post treatment under flooded conditions. The series is classed as functional.
The subject of series [6] is Elatine triandra. The series is described as follows: Pre-emergence herbicidal activity against Elatine triandra assessed as phytotoxic weed control visual ratings at 25 g ai/ha measured after 14 days post treatment under flooded conditions. The series is classed as functional.
Series [7] has as its system Rotala indica. The series is described as follows: Pre-emergence herbicidal activity against Rotala indica assessed as phytotoxic weed control visual ratings at 25 g ai/ha measured after 14 days post treatment under flooded conditions. The series is classed as functional.
For series [8], the system named is Echinochloa oryzicola. The series is described as follows: Post-emergence herbicidal activity against Echinochloa oryzicola assessed as phytotoxic weed control visual ratings measured after 14 days post treatment. The series is classed as functional.
Series [9] relates to Echinochloa crus-galli. The series is described as follows: Pre-emergence herbicidal activity against Echinochloa crus-galli (barnyard grass) assessed as phytotoxic weed control visual ratings at 500 g ai/ha measured after 14 days post treatment under upland field conditions. The series is classed as functional.
In series [10] the test system is Amaranthus viridis. The series is described as follows: Pre-emergence herbicidal activity against Amaranthus viridis assessed as phytotoxic weed control visual ratings at 500 g ai/ha measured after 14 days post treatment under upland field conditions. The series is classed as functional.
Series [11] relates to Schoenoplectiella juncoides. The series is described as follows: Pre-emergence herbicidal activity against Schoenoplectiella juncoides assessed as phytotoxic weed control visual ratings at 25 g ai/ha measured after 14 days post treatment under flooded conditions. The series is classed as functional.
Series [12] relates to Echinochloa oryzicola. The series is described as follows: Pre-emergence herbicidal activity against Echinochloa oryzicola assessed as phytotoxic weed control visual ratings measured after 14 days post treatment. The series is classed as functional.
Series [13] has as its system Chenopodium album. The series is described as follows: Pre-emergence herbicidal activity against Chenopodium album assessed as phytotoxic weed control visual ratings at 500 g ai/ha measured after 14 days post treatment under upland field conditions. The series is classed as functional.
Series [14] concerns Oryza sativa. The series is described as follows: Pre-emergence phytotoxicity against Oryza sativa cv. Koshihikari (rice) assessed as phytotoxic crop injury visual ratings measured after 14 days post treatment. The series is classed as organism-based. To be noted: in vivo, 336 h.
In series [15] the test system is Oryza sativa. The series is described as follows: Pre-emergence phytotoxicity against Oryza sativa cv. Koshihikari (rice) assessed as phytotoxic crop injury visual ratings at 25 g ai/ha measured after 14 days post treatment under flooded conditions. The series is classed as organism-based. To be noted: in vivo, other, 336 h.
In series [16] the test system is Echinochloa oryzicola. The series is described as follows: Pre-emergence herbicidal activity against Echinochloa oryzicola assessed as phytotoxic weed control visual ratings at 25 g ai/ha measured after 14 days post treatment under flooded conditions. The series is classed as functional.
For series [17], the system named is Cyperus difformis. The series is described as follows: Pre-emergence herbicidal activity against Cyperus difformis assessed as phytotoxic weed control visual ratings at 25 g ai/ha measured after 14 days post treatment under flooded conditions. The series is classed as functional.
For series [18], the system named is Digitaria ciliaris. The series is described as follows: Pre-emergence herbicidal activity against Digitaria ciliaris assessed as phytotoxic weed control visual ratings at 500 g ai/ha measured after 14 days post treatment under upland field conditions. The series is classed as functional.
Series [19] is described as follows: Selectivity index, ratio of ED10 for Oryza sativa to ED90 for Echinochloa oryzicola by post-emergence exposure method.
The subject of series [20] is Cyperus difformis. The series is described as follows: Pre-emergence herbicidal activity against Cyperus difformis assessed as phytotoxic weed control visual ratings at 1.25 kg ai/ha measured after 14 days post treatment under flooded conditions. The series is classed as functional.
Series [21] deals with Echinochloa oryzicola. The series is described as follows: Pre-emergence herbicidal activity against Echinochloa oryzicola assessed as phytotoxic weed control visual ratings at 1.25 kg ai/ha measured after 14 days post treatment under flooded conditions. The series is classed as functional.
For series [22], the system named is Elatine triandra. The series is described as follows: Pre-emergence herbicidal activity against Elatine triandra assessed as phytotoxic weed control visual ratings at 1.25 kg ai/ha measured after 14 days post treatment under flooded conditions. The series is classed as functional.
The test system of series [23] is Oryza sativa. The series is described as follows: Pre-emergence phytotoxicity against Oryza sativa cv. Koshihikari (rice) assessed as phytotoxic crop injury visual ratings at 1.25 kg ai/ha measured after 14 days post treatment under flooded conditions. The series is classed as organism-based. To be noted: in vivo, other, 336 h.
The subject of series [24] is Pontederia vaginalis. The series is described as follows: Pre-emergence herbicidal activity against Monochoria vaginalis assessed as phytotoxic weed control visual ratings at 1.25 kg ai/ha measured after 14 days post treatment under flooded conditions. The series is classed as functional.
Series [25] deals with Schoenoplectiella juncoides. The series is described as follows: Pre-emergence herbicidal activity against Schoenoplectiella juncoides assessed as phytotoxic weed control visual ratings at 1.25 kg ai/ha measured after 14 days post treatment under flooded conditions. The series is classed as functional.
The test system of series [26] is Rotala indica. The series is described as follows: Pre-emergence herbicidal activity against Rotala indica assessed as phytotoxic weed control visual ratings at 1.25 kg ai/ha measured after 14 days post treatment under flooded conditions. The series is classed as functional.
In series [27] the test system is Lindernia procumbens. The series is described as follows: Pre-emergence herbicidal activity against Lindernia procumbens assessed as phytotoxic weed control visual ratings at 1.25 kg ai/ha measured after 14 days post treatment under flooded conditions. The series is classed as functional.

As for `CC(C)=C1OC(=O)N(c2cc(OC(C)C)c(Cl)cc2F)C1=O`, the Phytotoxicity in series [1] amounted to 100%; in [4], 10%; in series [5] it was 100%; in series [6] it was 100%; in series [7], 100%; in series [9], 90%. Besides, the Phytotoxicity turned out to be 100% in [10]; 90% in series [11]; 100% in series [13]; 0% in [15]; 100% in series [16]; 100% in series [17]. In addition, in [18], the Phytotoxicity came to 100%. Besides, the ED10 came to 150 gAi/ha in series [2] and 100 gAi/ha in [14]. Moreover, the values for the Selectivity Index in series [3] and in series [19] were 4 and 6, respectively. Moreover, the ED90 in series [8] and in series [12] was 25 gAi/ha each time.

With `O=C1OC(=C2CCCCC2)C(=O)N1c1ccc(Cl)cc1`, the Phytotoxicity in series [20] was determined as 100%; in [21], 10%; in series [22], 100%; in series [23] it was 0%; in [24], 10%; in [25], 80%. In addition, the Phytotoxicity in series [26] and in series [27] was 100% in each case.

Take `C=CCOc1cc(N2C(=O)OC(=C(C)C)C2=O)c(F)cc1Cl`: the Phytotoxicity worked out at 100% in series [1]; 10% in [4]; 100% in series [5]; 100% in series [6]; 100% in series [7]; 30% in series [9]. In addition, the Phytotoxicity in series [10] was found to be 80%; in series [11], 90%; in [13], 70%; in [15], 0%; in [16] it was 80%; in [17] it was 100%. In addition, the Phytotoxicity in series [18] was found to be 90%. Also, the ED10 in [2] worked out at 100 gAi/ha; in series [14], 50 gAi/ha. The Selectivity Index in series [3] and in series [19] was 1 each time. Also, the ED90 came out at 100 gAi/ha in [8] and 50 gAi/ha in [12].

`CCC(CC)=C1OC(=O)N(c2ccc(Cl)cc2)C1=O`: the Phytotoxicity in [20] is given as 100%; in series [21] it was 10%; in series [22], 100%; in [23], 0%; in series [24], 90%; in series [25], 30%. The Phytotoxicity in series [26] and in series [27] was 100% in each case.

Turning to `CC/C(C)=C1/OC(=O)N(c2ccc(Cl)cc2)C1=O`, the Phytotoxicity in series [20] came out at 100%; in [21], 100%; in series [22], 100%; in series [23], 20%; in [24], 100%; in series [25], 100%. Also, the Phytotoxicity in [26] and in series [27] was 100% in each case.

For `CC(C)=C1OC(=O)N(c2cc(OC3CCCC3)c(Cl)cc2F)C1=O` [PENTOXAZONE], the Phytotoxicity in series [1] stood at 100%; in series [4] it was 10%; in series [5], 100%; in [6] it was 100%; in series [7], 100%; in series [9], 60%. Also, the Phytotoxicity in series [10] is 100%; in series [11] it was 100%; in [13] it was 50%; in [15], 0%; in [16], 100%; in series [17], 100%. In series [18], the Phytotoxicity was found to be 90%. For the same molecule, the ED10 in series [2] turned out to be 400 gAi/ha; in [14], 200 gAi/ha. Besides, the Selectivity Index in series [3] and in [19] was 16 in each case. Moreover, the figures for the ED90 in series [8] and in series [12] were 25 gAi/ha and 12.5 gAi/ha, respectively.

In the case of `CCCCCC/C(C)=C1/OC(=O)N(c2ccc(Cl)cc2)C1=O`, the Phytotoxicity in series [20] turned out to be 80%; in series [21], 10%; in series [22], 4%; in series [23] it was 0%; in series [24], 50%; in series [25] it was 10%. The Phytotoxicity in [26] and in series [27] was 4% each time.

Consider `CC(C)=C1OC(=O)N(c2cc(OC3CCCCC3)c(Cl)cc2F)C1=O`, for which the Phytotoxicity in series [1] is 100%; in series [4] it was 10%; in [5], 100%; in series [6], 100%; in series [7], 100%; in [9], 10%. Besides, the Phytotoxicity was found to be 30% in [10]; 80% in [11]; 20% in [13]; 0% in series [15]; 100% in series [16]; 100% in series [17]. Further, the Phytotoxicity in [18] is 30%. Further, the ED10 in [2] and in [14] was 200 gAi/ha throughout. In addition, the Selectivity Index in series [3] and in series [19] was 8 in each case. For the same molecule, the ED90 in [8] and in [12] was 25 gAi/ha in each case.

Take `CC(C)Oc1cc(-n2nc(C(C)(C)C)oc2=O)c(Cl)cc1Cl` [OXADIAZON]: the Phytotoxicity in series [1] is recorded as 100%; in series [4] it was 40%; in [5], 100%; in series [6], 100%; in series [7], 100%; in series [9], 100%. The Phytotoxicity in series [10] was found to be 100%; in [11] it was 100%; in series [13], 100%; in [15], 0%; in series [16], 90%; in series [17], 100%. Further, the Phytotoxicity in [18] is 100%. Further, the ED10 is 400 gAi/ha in series [2] and 200 gAi/ha in series [14]. Also, the Selectivity Index in series [3] and in series [19] was 8 throughout. Besides, the ED90 in [8] is 50 gAi/ha; in series [12], 25 gAi/ha.

Regarding `CCCC/C(C)=C1/OC(=O)N(c2ccc(Cl)cc2)C1=O`, the Phytotoxicity in [20] is listed as 100%; in series [21], 40%; in series [22], 100%; in [23], 10%; in series [24], 100%; in series [25], 100%. The Phytotoxicity in series [26] and in [27] was 100% in each case.

In the case of `CC(C)=C1OC(=O)N(c2ccc(F)cc2)C1=O`, the Phytotoxicity in series [20] was 100%; in [21], 10%; in series [22], 40%; in series [23] it was 0%; in series [24], 40%; in series [25] it was 0%. The Phytotoxicity in series [26] and in series [27] was 40% each time.
